The values that follow come from patent publication US5453533A (priority 1994, dated 1995).

“Also recorded” adds a separate entry of the source. Read-outs that look alike come from different tables or passages of the source.

Experiment [1] deals with influenza neuraminidase. The note with it: cited from earlier work.
Experiment [2] concerns the target T1, N2 (A/Tokyo/67) neuraminidase (Influenza A virus, UniProt P06820). The experiment can be described thus: biochemical. More on the design: species or system influenza A virus (A/Tokyo/67).
For experiment [3], the target named is T2, type B (B/Memphis/3/89) neuraminidase (Influenza B virus (B/Memphis/3/89), UniProt P16199). It counts as biochemical. The following applies: read-out: IC50, MUN substrate, B/Mem/89.
T2 sequence (P16199 whole entry, looked up): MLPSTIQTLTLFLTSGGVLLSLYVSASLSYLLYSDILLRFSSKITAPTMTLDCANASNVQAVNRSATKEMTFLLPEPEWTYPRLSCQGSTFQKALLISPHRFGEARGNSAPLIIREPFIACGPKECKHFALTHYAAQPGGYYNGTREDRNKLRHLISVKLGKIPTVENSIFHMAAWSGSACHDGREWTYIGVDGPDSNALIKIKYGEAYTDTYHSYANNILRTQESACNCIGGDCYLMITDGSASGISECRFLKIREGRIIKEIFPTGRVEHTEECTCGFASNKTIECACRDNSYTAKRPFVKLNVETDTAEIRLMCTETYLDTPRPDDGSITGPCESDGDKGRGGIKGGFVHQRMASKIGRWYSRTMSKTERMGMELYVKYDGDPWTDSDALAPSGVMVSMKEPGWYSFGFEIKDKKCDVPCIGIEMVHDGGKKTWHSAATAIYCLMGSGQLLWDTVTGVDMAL
Experiment [4] has as its target T1, N2 (A/Tokyo/67) neuraminidase. The experiment can be described thus: biochemical. More on the design: species or system influenza A virus (A/Tokyo/67). This is another data set of the same source.
For experiment [5], the target named is T2, type B (B/Memphis/3/89) neuraminidase. Format: biochemical. The note with it: read-out: IC50, Fetuin substrate, B/Mem/89.
For experiment [6], the system named is influenza NA. It counts as biochemical, influenza virus type A or type B.
The target of experiment [7] is N2 (Influenza A virus (A/Tokyo/3/1967(H2N2)), UniProt P06820). Format: binding.
N2 (Influenza A virus (A/Tokyo/3/1967(H2N2)), UniProt P06820), sequence (P06820 whole entry, looked up): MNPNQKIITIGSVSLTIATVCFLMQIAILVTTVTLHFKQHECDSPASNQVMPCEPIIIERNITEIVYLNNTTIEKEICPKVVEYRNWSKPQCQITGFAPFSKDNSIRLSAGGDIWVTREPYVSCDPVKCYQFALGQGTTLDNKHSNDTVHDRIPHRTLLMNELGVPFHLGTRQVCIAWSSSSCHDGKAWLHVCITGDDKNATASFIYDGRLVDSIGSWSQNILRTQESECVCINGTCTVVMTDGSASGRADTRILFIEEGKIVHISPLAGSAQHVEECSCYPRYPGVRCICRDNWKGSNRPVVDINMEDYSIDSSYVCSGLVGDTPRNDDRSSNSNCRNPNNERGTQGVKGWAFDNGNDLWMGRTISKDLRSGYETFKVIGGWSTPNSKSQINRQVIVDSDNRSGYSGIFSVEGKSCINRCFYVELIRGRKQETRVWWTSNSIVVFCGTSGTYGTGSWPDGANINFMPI
Experiment [8] has as its system influenza subtype A. The following applies: cited from earlier work.
Experiment [9] relates to influenza B. The note with it: cited from earlier work.
For experiment [10], the target named is influenza A neuramidase. The note with it: Taylor & von Itzstein, 1994; cited from earlier work.
Experiment [11] has as its system Influenza NA. The following applies: trisaccharide substrate; cited from earlier work.
The mark [12] stands for this setting: whole virus, 50% inhibition of NA activity, MUN, 15 minutes at 37° C, pH 6.0.

T1 sequence (P06820 whole entry, looked up): as above

For `O=C(O)C1=C[C@H](O)[C@@H](NC(=O)C(F)(F)F)[C@H]([C@H](O)[C@H](O)CO)O1` [FANA, 2-deoxy-2,3-dehydro-N-(trifiuoroacetyl)neuraminic acid], the “in vitro activity compared with DANA” value in [1] (Palese and Compans, 1976) is “greater in vitro activity”.
`CC(=O)Nc1ccc(C(=O)O)cc1O` [Compound 101, 4-(acetylamino)-3-hydroxybenzoic acid]: the IC50 in [2] is more than 10 mM; in experiment [3] (pH 6) it was more than 10 mM; in [4], 10 mM; in [5], 10 mM. Further, in experiment [6], the “Change in activity from nitro group alone or phenol OH alone” value is given as “did not result in significant changes in activity”.
Consider `CC(=O)N[C@H]1[C@H]([C@H](O)[C@H](O)CO)OC(O)(C(=O)O)C[C@@H]1O` (stereo partly shown) [sialic acid, N-acetylneuraminic acid, reference compound], for which the IC50 was more than 10 mM in [3] (setting [12]); 10 mM in experiment [6] (whole virus screen, MUN and fetuin, read-out: IC50 (modest product inhibitor)). The Ki (as a rule, a dissociation constant, usually derived from enzyme kinetics or from competition with a known ligand) in experiment [1] was approximately 1 mM.
Regarding `CC(=O)Nc1ccc(C(=O)O)cc1N` [Compound 108, 4-(acetylamino)-3-aminobenzoic acid], the IC50 in experiment [2] was more than 10 mM; in experiment [3] (pH 6), more than 20 mM; in experiment [4], more than 10 mM. For the same compound, the “binding to N2” value in experiment [7] is on record as “binds the weakest to N2”.
Regarding `CC(N)C12CC3CC(CC(C3)C1)C2` (stereo not shown) [rimantadine], the “effect against influenza A” value in experiment [8] is “effective only against influenza subtype A”. The “effect on influenza B” value in experiment [9] was “no effect on influenza B”.
As to `CC(=O)N[C@H]1[C@H]([C@H](O)[C@H](O)CO)OC(C(=O)O)=C[C@@H]1O` [DANA, 2-deoxy-2,3-dehydro-N-acetylneuraminic acid, reference compound], the IC50 in experiment [2], in [3] (pH 6), in [4] and in experiment [5] was 0.015 mM throughout. The Ki in [1] (in vitro, influenza neuraminidase) was 0.01 mM; in [10], 0.004 mM.
On to `CC(=O)Nc1c(OC(C)=O)cc(C(=O)O)cc1[N+](=O)[O-]` [Compound 104, 3-acetoxy-4-(acetylamino)-5-nitrobenzoic acid], for which the IC50 in experiment [3] (pH 6) amounted to 2 mM; in experiment [5] it was 5 mM.
Turning to `CC(=O)Nc1ccc(C(=O)O)cc1NC(=O)CCCN` [Compound 112, 4-(acetylamino)-3-[(4-aminobutanoyl)amino]benzoic acid], the IC50 in experiment [2], in experiment [3] (pH 6), in experiment [4] and in [5] was more than 10 mM each time.
For `CC(=O)Nc1ccc(C(=O)O)cc1NC(=O)CO` [Compound 109, 4-(acetylamino)-3-[(hydroxyacetyl)amino]benzoic acid], the IC50 is 4 mM in experiment [2], 3 mM in experiment [3] (pH 6), more than 10 mM in experiment [4] and 10 mM in experiment [5].
Take N-acetyl neuraminyl lactose: in [11], the Km (usually the substrate concentration at which the rate is half of its maximum) is approximately 400 µM.
Regarding `CC(=O)Nc1c(O)cc(C(=O)O)cc1[N+](=O)[O-]` [Compound 105, 4-(acetylamino)-3-hydroxy-5-nitrobenzoic acid], the IC50 was determined as 0.75 mM in experiment [3] (pH 6) and 1 mM in [5]. The “Activity compared with sialic acid” value in experiment [6] was “significantly more potent than sialic acid; also recorded: enhanced activity”. The “binding to N2” value in [7] was “binds strongest to N2”.
As to `NC12CC3CC(CC(C3)C1)C2` [amantadine], the “effect against influenza A” value in experiment [8] is “effective only against influenza subtype A”. Further, the “effect on influenza B” value in experiment [9] is given as “no effect on influenza B”.
Turning to `CC(=O)Nc1ccc(C(=O)O)cc1NC(=O)CN` [Compound 111, 4-(acetylamino)-3-[(aminoacetyl)amino]benzoic acid], the IC50 in experiment [2] and in experiment [5] was 5 mM each time.
With `CC(=O)Nc1ccc(C(=O)O)cc1OC(C)=O` [Compound 102, 4-(acetylamino)-3-acetoxybenzoic acid], the IC50 in experiment [2] was more than 10 mM; in experiment [3] (pH 6) it was more than 10 mM; in experiment [4] it was 10 mM; in experiment [5], 5 mM.
Turning to `CC(=O)Nc1c(N)cc(C(=O)O)cc1O.Cl` [Compound 106, 3-amino-4-(acetylamino)-5-hydroxybenzoic acid, hydrochloride], the IC50 is more than 10 mM in experiment [2], 10 mM in [3] (pH 6), more than 10 mM in [4] and more than 10 mM in [5]. Further, the “binding to N2” value in experiment [7] is “bind fairly well”.
Take `CC(=O)Nc1ccc(C(=O)O)cc1NC(=O)C(O)CO` (stereo not shown) [Compound 110, 4-(acetylamino)-3-[(2,3-dihydroxypropionyl)amino]benzoic acid]: the figures for the IC50 in experiment [3] (pH 6) and in [5] were 8 mM and more than 10 mM, respectively.
For the compound `CC(=O)Nc1ccc(C(=O)O)cc1[N+](=O)[O-]` [Compound 107], the IC50 in experiment [2] worked out at 5 mM; in experiment [3] (setting [12]), 5 mM; in [4] it was 5 mM; in [5] (whole virus, 50% inhibition of NA activity, fetuin), 5 mM. In experiment [6], the “Change in activity from nitro group alone or phenol OH alone” value was “did not result in significant changes in activity”.
For `CC(=O)Nc1cc([N+](=O)[O-])c(C(=O)O)c([N+](=O)[O-])c1O` [Compound 103, 4-(acetylamino)-3-hydroxy-2,6-dinitrobenzoic acid], the IC50 was determined as 1 mM in experiment [3] (pH 6) and 4 mM in experiment [5].
